Results on 6 compounds are retold here after patent US20240132461A1, “FLAVONE DEAZA SPERMIDINE ANALOGUES AND THEIR USE TREATING CANCER” (FLORATEK PHARMA S.A., priority 2021, published 2024).

Counter-ions that a name gives are not always drawn.

Data set [1] has as its system RXF 486. Put plainly: Cell viability assay, MDR renal carcinoma patient derived line RXF 486. Format: cell-based. Particulars: RXF 486 MDR renal carcinoma patient derived line. On the procedure: (§1) Antitumor activity of the compounds and doxorubicin as a positive control was assessed by using the CellTiter-Blue Cell Viability Assay (Promega, #G8082) or CellTiter-Glow® Luminescent Cell Viability assay (Promega # G7572) according to the manufacturer's instructions. The compounds were tested at 5 or 6 concentrations in half-log increments (highest concentration 30 μM-100 μM) in duplicate or triplicate well conditions.
(§2) Tumor cells were grown at 37° C. in a humidified atmosphere with 5% CO2 in RPMI 1640 or DMEM medium, supplemented with 10% (v/v) fetal calf serum and 50 μg/ml gentamicin for up to 20 passages, and were passaged once or twice weekly. Cells were harvested using TrypLE or PBS buffer containing 1 mM EDTA, and the percentage of viable cells is determined using a CASY Model TT cell counter (OMNI Life Science). Cells were harvested from exponential phase cultures, counted and plated in 96 well flat-bottom microtiter plates at a cell density depending on the cell line's growth rate (4,000-20,000 cells/well depending on the cell line's growth rate, up to 60,000 for hematological cancer cell lines) in RPMI 1640 or DMEM medium supplemented with 10% (v/v) fetal calf serum and 50 μg/ml gentamicin (140 μl/well). […] Viability of cells was quantified by the CellTiter-Blue® cell viability assay (Promega G8081) or CellTiter-Glow® Luminescent Cell Viability assay (Promega # G7572). […]

The subject of data set [2] is Panc-1. Put plainly: Cell viability assay, pancreatic carcinoma cell line Panc-1. The format is cell-based. As to conditions: Homo sapiens; Panc-1 pancreatic carcinoma cell line. On the procedure:
as §1
(§3) Tumor cells were grown at 37° C. in a humidified atmosphere with 5% CO2 in RPMI 1640 or DMEM medium, supplemented with 10% (v/v) fetal calf serum and 50 μg/ml gentamicin for up to 20 passages, and were passaged once or twice weekly. Cells were harvested using TrypLE or PBS buffer containing 1 mM EDTA, and the percentage of viable cells is determined using a CASY Model TT cell counter (OMNI Life Science). Cells were harvested from exponential phase cultures, counted and plated in 96 well flat-bottom microtiter plates at a cell density depending on the cell line's growth rate (4,000-20,000 cells/well depending on the cell line's growth rate, up to 60,000 for hematological cancer cell lines) in RPMI 1640 or DMEM medium supplemented with 10% (v/v) fetal calf serum and 50 μg/ml gentamicin (140 μl/well). Cultures were incubated at 37° C. and 5% CO2 in a humidified atmosphere. After 24 h, 10 μl of test compounds or control medium are added, and left on the cells for another 72 h. Compounds were serially diluted in DMSO, transferred in cell culture medium, and added to the assay plates. The DMSO concentration was kept constant at <0.3% v/v across the assay plate. Viability of cells was quantified by the CellTiter-Blue® cell viability assay (Promega G8081) or CellTiter-Glow® Luminescent Cell Viability assay (Promega # G7572). Fluorescence (FU) was measured by using the EnSpire® multimode plate reader (Perkin Elmer) (excitation λ=570 nm, emission λ=600 nm) or luminescent detection of ATP in viable cells was used as parameter for proliferation. Luminescence was measured with the microplate luminometer (Promega or Perkin Elmer).
(§4) Sigmoidal concentration-response curves were fitted to the data points (test-versus-control, T/C values) obtained for each tumor model using 4 parameter non-linear curve fit (Charles River DRS Datawarehouse Software) or with GraphPad prism 5.02 software. IC50 values are reported as absolute IC50 values, being the concentration of test compound at the intersection of the concentration-response curves with T/C=50%

The subject of data set [3] is pancreatic carcinoma cell. Put plainly: Cell viability assay, pancreatic carcinoma cell lines (summary). The format is cell-based. As to conditions: summary of Table 12; read-out: IC50s, pancreatic carcinoma cell growth. How it is done: as §1, §3, §4
Data set [4] concerns H69AR. Put plainly: Cell viability assay, resistant small cell lung carcinoma cell line H69AR. Format: cell-based. As to conditions: H69AR multiple drug resistant small cell lung carcinoma cell line. How it is done:
as §1, §3, §4
The multiple drug resistant cell line H69AR obtained from ATCC, was established from NCI-H69 cells that were grown in the presence of increasing concentrations of adriamycin (doxorubicin). The H69AR cell line is approximately 50-fold resistant to adriamycin as compared to the parental NCI-H69 cell line. SND141, SND142, SND143, SND146, SND147 and SND148 inhibited the resistant cell line H69AR with IC50s below 5 μM, as presented in Table 8.

Data set [5] can be described thus: In vivo maximum tolerated dose in NOG mice. As to conditions: for tolerability at the highest dose administered: 8-10 mg/kg i.p., daily or every other day over 8 days; for MTD at 8 days: mouse, in vivo, ip, repeated i.p. administration, MTD not reached, read-out: maximum tolerated dose (MTD), estimated. How it is done: In order to evaluate the general toxicity of selected SND compounds in an animal model, a maximum tolerated dose (MTD) in NOG mice has been undertaken. Three mice per group were treated daily or every other day over 8 days at various doses between 5 mg/kg and 10 mg/kg. Administration of the compounds was i.p. A stock solution of the compounds (40 mg/ml in DMSO) was prepared and frozen at −20° C. in aliquots for each treatment. […] Body weights were measured before each treatment. Mice were further observed for 1 week after the last treatment.

Data set [6] concerns MIA-Pa-Ca-2. Put plainly: Cell viability assay, pancreatic carcinoma cell line MIA-Pa-Ca-2. Format: cell-based. Particulars: Homo sapiens, MIA PaCa-2; MIA-Pa-Ca-2 pancreatic carcinoma cell line. On the procedure:
as §1, §3, §4

Data set [7] relates to CALU-6. Put plainly: Cell viability assay, non-small cell lung carcinoma cell line CALU-6. Format: cell-based. Particulars: Homo sapiens; CALU-6 non-small cell lung carcinoma cell line. On the procedure: as §1, §3, §4
The test system of data set [8] is lung carcinoma cell. Put plainly: Cell viability assay, lung carcinoma cell lines (summary). Format: cell-based. As to conditions: summary of Tables 7A-E; read-out: IC50s, lung carcinoma cell growth. On the procedure:
as §1, §3, §4

Data set [9] relates to CH-17-0098. Put plainly: PDX cytotoxicity assay, bile duct PDX CH-17-0098. The format is cell-based. On the procedure: (§5) PDX-derived cell cultures were obtained from tumors explanted from mice and isolated by mechanical and enzymatic dissociation. […] Cells were harvested and seeded in 96-wells plates at a density of 1.25 to 5×10^3 cells/well for cytotoxicity assays. Cells were incubated 48 h at 37° C. prior to addition of test molecules and vehicle (DMSO, 0.1%) at desired final concentrations. Cell viability was assessed before drugs' addition (T0) and 5 days after test molecules addition by measuring ATP cell content using CellTiter-Glo® Luminescent Cell Viability Assay (Promega) according to the manufacturer's instructions. Luciferase activity was measured on a luminometer (PerkinElmer® EnVision™). Each concentration of compounds was tested in triplicate.
(§6) Viability was calculated as a percentage of ATP value compared to vehicle treated controls.
(§7) For PDX primary cell cultures, the tumour tissue was washed with PBS containing antibiotic-antimycotic and non-tumour tissue and necrotic tumour tissues were separated. The tumour tissue was transferred to a new dish and cut into 1˜2 mm^3 fragments, resuspended in RPMI-1640 medium and centrifuged at 1,200 rpm for 6 min at room temperature. The pelleted material was resuspended with 15 mL of Tumour Cell Digestion Solution and incubated at 37° C. for 1 hour with agitation. […]

The subject of data set [10] is SC6. Put plainly: PDX cytotoxicity assay, small cell lung carcinoma PDX SC6. The format is cell-based. How it is done:
as §5, §6, §7

For data set [11], the system named is IMR-5-75. Put plainly: Cell viability assay, brain carcinoma cell line IMR-5-75. As to conditions: IMR-5-75 brain carcinoma cell line. The format is cell-based. How it is done: as §1, §2
In data set [12] the test system is SK-OV-3. Put plainly: Cell viability assay, ovarian carcinoma cell line SK-OV-3. Format: cell-based. On the procedure:
as §1, §2

In data set [13] the test system is MeWo. Put plainly: Cell viability assay, melanoma cell line MeWo. Format: cell-based. As to conditions: Homo sapiens. How it is done:
as §1
as §3, with “Elmer). […]” for “Elmer).”

In data set [14] the test system is NCI-H1299. Put plainly: Cell viability assay, non-small cell lung carcinoma cell line NCI-H1299. The format is cell-based. Particulars: Homo sapiens. On the procedure: as §1, §3, §4
Data set [15] deals with melanoma cell lines. Put plainly: Cell viability assay, melanoma cell lines (summary). As to conditions: summary of Tables 14A and 14B; read-out: IC50s, melanoma cell lines growth. The format is cell-based. On the procedure:
as §1, §3, §4

The test system of data set [16] is A375. Put plainly: Cell viability assay, melanoma cell line A375. The format is cell-based. Particulars: Homo sapiens, A-375. How it is done: as §1, §3, §4
Data set [17] has as its system H69AR. As to conditions: H69AR from ATCC, vs parental NCI-H69; cited from earlier work.

Regarding `COc1c(O)ccc2c(=O)cc(-c3ccc(CCCCN4CCCC4)cc3)oc12` [SND143, 7-hydroxy-8-methoxy-2-(4-(4-(pyrrolidin-1-yl)butyl)phenyl)-4H-chromen-4-one], the IC50 was 1.3 µM in [1]; 6.09 µM in data set [2]; below 10 µM in data set [3]; 3.3 µM in [4]; below 5 µM in [4] (Homo sapiens, H69AR); 4.96 µM in [6]. Also, the “tolerability at the highest dose administered” value in data set [5] is recorded as “well tolerated”. In addition, the maximum tolerated dose (MTD) at 8 days in data set [5] is above 10 mg/kg.
Consider `COc1c(O)ccc2c(=O)cc(-c3ccc(CCCCN(C)CCN4CCCCC4)cc3)oc12` [SND146, 7-Hydroxy-8-methoxy-2-(4-(4-(methyl(2-(piperidin-1-yl)ethyl)amino)butyl)phenyl)-4H-chromen-4-one], for which the IC50 was 0.4 µM in data set [1]; 1.2 µM in [2]; 17.2 µM in data set [7]; below 20 µM in data set [8]; below 10 µM in data set [3]; 0.87 µM in data set [6].
As to `COc1c(O)ccc2c(=O)cc(-c3ccc(CCCCN4CCCCC4)cc3)oc12` [SND148, 7-hydroxy-8-methoxy-2-(4-(4-(piperidin-1-yl)butyl)phenyl)-4H-chromen-4-one], the IC50 in data set [2] was 2.3 µM; in [3], below 10 µM; in [9] it was 13.9 µM; in data set [4], 2.5 µM; in data set [4] (Homo sapiens, H69AR), below 5 µM; in [6] it was 2.21 µM. In addition, the “tolerability at the highest dose administered” value in data set [5] was “well tolerated”. Also, the MTD at 8 days in [5] was above 10 mg/kg.
In turn, `CN(CCCc1ccc(-c2cc(=O)c3ccc(O)c(O)c3o2)cc1)CCN1CCCCC1` [SND171, 7,8-Dihydroxy-2-(4-(3-(methyl(2-(piperidin-1-yl)ethyl)amino)propyl)phenyl)-4H-chromen-4-one dihydrochloride] had an IC50 in [10] of 15 µM.
On to `COc1c(O)ccc2c(=O)cc(-c3ccc(CCCCNCCNCCCN)cc3)oc12` [SND211], for which the IC50 was 1.5 µM in [11]; below 20 µM in data set [12] (Homo sapiens, SK-OV-3, SK-OV-3 ovarian carcinoma cell line); 10.6 µM in [12] (SK-OV-3 ovarian carcinoma cell line); 5.3 µM in [13]; 1.8 µM in data set [14]; below 20 µM in data set [8]. Besides, the values for the IC50 in [15] and in [16] were below 10 µM and 1.8 µM, respectively.
As to `COc1cccc2c1C(=O)c1c(O)c3c(c(O)c1C2=O)C[C@@](O)(C(=O)CO)C[C@@H]3O[C@H]1C[C@H](N)[C@H](O)[C@H](C)O1` [adriamycin], the “resistance of H69AR compared to the parental NCI-H69 cell line” value in data set [17] is on record as “approximately 50 fold”.
